Earlier results as cited in article PMC7221964 (Molecules, 2020).
Read-outs that look alike come from different tables or passages of the source.

System: epigenetic reader proteins
Text: ITC studies provided thermodynamic parameters (Gibbs free energy of binding ΔG°, enthalpy of binding ΔH°, entropy of binding ΔS°) for the association between five ...

Compound: C[N+](C)(C)CCSCC(N)C(=O)O (centres unmarked) [KCme3, trimethylthialysine]
- recognition by reader proteins (different epigenetic reader proteins): well recognized

Compound: C[N+](C)(C)CCCCCC(N)C(=O)O (centres unmarked) [trimethylhomolysine]
- recognition by reader proteins (panel of the same five reader proteins): very well recognized
